Patent publication US20100015058A1, “RADIOLABELED BBN-RGD HETERODIMERS FOR CANCER TARGETING” (STANFORD UNIVERSITY, priority 2008, published 2010)

Tests used:
PC-3 tumor cells = test: Cell uptake assay on PC-3 tumor cells; assay type: cell-based, human; conditions: PC-3 cells; for cell uptake: 37° C.
Procedure: In the cell uptake experiment, PC-3 cells were seeded into 12-well plates at a density of 5×10^5 cells per well for overnight incubation. Cells were rinsed 3 times with phosphate-buffered saline (PBS), followed by the addition of ^18F-FB-RGD, ^18F-FB-BBN, or ^18F-BBN-RGD to the cultured wells in triplicate (about 2 μCi/well). […] The cell lysate was collected in measurement tubes for counting. The cell uptake was normalized in terms of added radioactivity.
The cell uptake studies were performed as we have previously described with some modifications (Chen et al., Mol Imaging Biol. (2004) […]; Cai et al., (2006) J. Nuc. Med. 47: 1172-1180, incorporated herein by reference in their entireties). Briefly, PC-3 cells were seeded into 12-well plates at a density of 5×10^5 cells per well and incubated (about 18 kBq/well) with ^68Ga-labeled tracers at 37° C. for 15, 30, 60, and 120 min. Tumor cells were then washed three times with chilled PBS and harvested by trypsinization with 0.25% trypsin/0.02% EDTA (Invitrogen). The cell suspensions were collected and measured in a y counter (Packard, Meriden, Conn.). The cell uptake was expressed as the percent added dose (% AD) after decay correction. Experiments were performed twice with triplicate wells. For efflux studies, ^68Ga-labeled tracers (about 18 kBq/well) were first incubated with PC-3 cells in 12-well plates for 1 h at 37° C. to allow internalization. Then cells were washed twice with PBS, and incubated with cell culture medium for 15, 30, and 60 min. After washing three times with PBS, cells were harvested by trypsinization with 0.25% trypsin/0.02% EDTA. The cell suspensions were collected and measured in a γ counter. Experiments were performed twice with triplicate wells. Data are expressed as percent added dose after decay correction.

T47D tumor cells = test: Cell uptake assay on T47D tumor cells; assay type: cell-based, human; conditions: 120 min, 37° C., n=3
Procedure: The cells suspensions were collected and measured in a y counter (Packard, Meriden, Conn.). The cell uptake was expressed as the percent added dose (% AD) after decay correction. Experiments were performed twice with triplicate wells.

[1] = Small-animal PET of PC-3 tumor-bearing mice; conditions: mouse, in vivo, iv, total radioactivity; for tissue to tissue ratio at 2 h: T/NT ratio
Procedure: (a) PET scans and image analysis were performed using a micro-PET R4 rodent model scanner (Siemens Medical Solutions) as reported by Li et al., J. Nucl. Med. (2007) 48: 1162-1171 and Wu et al., J Nucl. Med. (2005) 46: 1707-1718, both of which are incorporated herein by reference in their entireties). […] Five-minute static PET images were then acquired at 0.5, 1, and 2 h after injection. The images were reconstructed by a 2-dimensional ordered-subsets expectation maximum (OSEM) algorithm. No attenuation or scatter correction was applied. […] The 5-min static PET scans were then acquired at 1 hr after injection. For each small-animal PET scan, regions of interest (ROIs) were drawn over the tumor, normal tissue, and major organs by using vendor software (ASI Pro 5.2.4.0) on decay-corrected whole-body coronal images. The average radioactivity concentration (accumulation) within a tumor or an organ was obtained from mean pixel values within the multiple ROI volume, which were converted to counts/mL/min using a conversion factor. Assuming a tissue density of 1 g/mL, the ROIs were converted to counts/g/min, and then divided by the administered activity to obtain an imaging ROI-derived percentage injected dose per gram of tissue (% ID/g).
For dynamic PET, 30-min scans (1×30 s, 4×1 min, 1×1.5 min, 4×2 min, 5×3 min; total 15 frames) were started 1 min after injection, and two 5-min static PET images were also acquired at 1 h and 2 h after injection. […] For each small-animal PET scan, regions of interest (ROIs) were drawn over the tumor, normal tissue, and major organs using vendor software ASI Pro 5.2.4.0 on decay-corrected whole-body coronal images. The maximum radioactivity concentrations (accumulation) within a tumor or an organ were obtained from mean pixel values within the multiple ROI volume, and were converted to megabecquerels per milliliter per minute using a conversion factor. These values were then divided by the administered activity to obtain (assuming a tissue density of 1 g/ml) an image ROI-derived percent injected dose per gram (% ID/g).
The images were reconstructed using a 2-dimensional ordered-subsets expectation maximum algorithm without attenuation or scatter correction.
For each small-animal PET scan, regions of interest were drawn over each tumor, over normal tissue, and over major organs using vendor software (ASI Pro, version 5.2.4.0) on decay-corrected whole-body coronal images. The maximum radioactivity concentration (accumulation) within a tumor or an organ was obtained from the mean pixel values within the multiple-region-of-interest volume, which were converted to MBq/mL/min using a conversion factor. Assuming a tissue density of 1 g/mL, the regions of interest were converted to MBq/g/min and then divided by the administered activity to obtain an imaging region-of-interest-derived percentage injected dose (% ID)/g.

[2] = Small-animal PET of MDA-MB-435 tumor-bearing mice; conditions: female, athymic nude, mouse, in vivo, iv, total radioactivity, MDA-MB-435 tumor uptake
[3] = MicroPET of T47D tumor-bearing mice; assay type: in vivo; conditions: female, nude, mouse, T47D tumor, iv, total radioactivity, orthotopic model
From the text: The MDA-MB-231, MDA-MB468, BT474, BT-20, T47D, MCF-7 and MDA-MB435 human breast cancer cell lines were all obtained from the American Type Culture Collection (ATCC) and maintained under standard conditions according to ATCC. The MDA-MB435 tumor model was established by orthotopic injections of 5×10^6 cells into the right mammary fat pad of female athymic nude mice. For T47D tumor model establishment, the female nude mice were first subcutaneously implanted with 60-day release 17β-estradiol pellets (Innovative Research of America, Sarasota, Fla.) in the left neck. One day after the estradiol implantation, 1×10^7 T47D cells were orthotopically injected into the right mammary fat pad of the nude mice. The mice were subjected to microPET studies when the tumor volume reached 100-300 mm^3 (2-3 weeks for MDA-MB-435, and 4-5 wk for T47D).
Quantification of tumor and major organ activity accumulation in the microPET scans was realized by measuring the regions of interest (ROIs) that encompassing the entire organ on the coronal images.

[4] = male, athymic nude, 3.7 MBq, PC-3 tumor uptake
[5] = male, athymic nude, 3.7 MBq, PC-3 tumor uptake, dynamic scan
[6] = male, athymic nude, 3.7 MBq, PC-3 tumor uptake, static scan after dynamic scan
[7] = male, athymic nude, 5.5 MBq, Tumor uptake

Compound: CSCC[C@H](NC(=O)[C@H](CC(C)C)NC(=O)[C@H](Cc1c[nH]cn1)NC(=O)CNC(=O)[C@@H](NC(=O)[C@H](C)NC(=O)[C@H](Cc1c[nH]c2ccccc12)NC(=O)[C@H](CCC(N)=O)NC(=O)CCCCCNC(=O)CC[C@H](NC(=O)COCCOCCOCCNC(=O)c1ccc([18F])cc1)C(=O)NCCCC[C@@H]1NC(=O)[C@@H](Cc2ccc(O)cc2)NC(=O)[C@H](CC(=O)O)NC(=O)CNC(=O)[C@H](CCCNC(=N)N)NC1=O)C(C)C)C(N)=O [^18F-FB-PEG3-RGD-BBN]
- inhibition of cell uptake by BBN (PC-3 tumor cells; 4° C., 60 min, blocking with Aca-BBN(7-14)): 83.67±2.09%
- inhibition of cell uptake by RGD+BBN (PC-3 tumor cells; 4° C., 60 min, blocking with both peptides): 91.97±0.14%
- inhibition of cell uptake by RGD (PC-3 tumor cells; 4° C., 60 min, blocking with c(RGDyK)): 17.55±8.89%
- cell uptake (PC-3 tumor cells; 15 min): 4.72±0.37%
- cell uptake (PC-3 tumor cells; 30 min): 5.51±0.11%
- cell uptake (PC-3 tumor cells; 60 min): 5.87±0.15%
- cell uptake (PC-3 tumor cells; 120 min): 6.65±0.34%
- internalization (uptake at 37° C. minus uptake at 4° C.) (PC-3 tumor cells; within 30 min of incubation, plateaus afterwards): about 3.5%
- T47D cell uptake value (T47D tumor cells): 4.25±0.13 % AD
- tissue uptake at 1 h ([1]; male, athymic nude, 10 mg/kg, PC-3 tumor uptake with RGD blocking, 1 h, 3.7 MBq, co-injected c(RGDyK) 10 mg/kg): 2.19 ± 0.97 %ID/g
- tissue uptake at 0.5 h [1, 4]: 6.35 ± 2.52 %ID/g
- tissue uptake at 1 h [1, 4]: 4.41 ± 0.71 %ID/g
- tissue uptake at 2 h [1, 4]: 2.47 ± 0.81 %ID/g
- tissue uptake at 5 min [1, 5]: 3.54 %ID/g
- tissue uptake at 0.25 h [1, 5]: 4.86 %ID/g
- tissue uptake at 0.5 h [1, 5]: 5.64 %ID/g
- tissue uptake at 1 h [1, 6]: 4.08 %ID/g
- tissue uptake at 2 h [1, 6]: 2.88 %ID/g
- tissue uptake at 0.5 h ([1]; male, athymic nude, 3.7 MBq, liver uptake (highest)): < 2 %ID/g
- tissue uptake at 1 h ([1]; male, athymic nude, PC-3 tumor uptake with BBN blocking, 1 h, 3.7 MBq, co-injected Aca-BBN(7-14) 15 mg/kg): 1.58 ± 0.52 %ID/g
- tissue uptake at 1 h ([1]; male, athymic nude, PC-3 tumor uptake with RGD+BBN blocking, 1 h, 3.7 MBq, co-injected RGD 10 mg/kg and BBN 15 mg/kg): 0.43 ± 0.08 %ID/g
- tissue to tissue ratio at 2 h ([1]; tumor/blood): 8.1 ± 1.14
- tissue to tissue ratio at 2 h ([1]; tumor/kidneys): 1.44 ± 0.05
- tissue to tissue ratio at 2 h ([1]; tumor/liver): 6.43 ± 0.81
- tissue to tissue ratio at 2 h ([1]; tumor/muscle): 10.5 ± 0.75
- tissue uptake at 0.5 h [2]: 2.72 ± 0.8 %ID/g
- tissue uptake at 1 h [2]: 1.59 ± 0.65 %ID/g
- tissue uptake at 2 h [2]: 0.84 ± 0.22 %ID/g
- tissue uptake at 0.5 h ([3]; 0.5 h): 2.96 ± 0.53 %ID/g
- tissue uptake at 1 h ([3]; 1 h): 1.81 ± 0.34 %ID/g
- tissue uptake at 2 h ([3]; 2 h): 0.91 ± 0.12 %ID/g

Compound: CSCC[C@H](NC(=O)[C@H](CC(C)C)NC(=O)[C@H](Cc1c[nH]cn1)NC(=O)CNC(=O)[C@@H](NC(=O)[C@H](C)NC(=O)[C@H](Cc1c[nH]c2ccccc12)NC(=O)[C@H](CCC(N)=O)NC(=O)CCCCCNC(=O)CC[C@H](NC(=S)Nc1ccc(C[C@H]2CN(CC(=O)O)CCN(CC(=O)O)CCN2CC(=O)O)cc1)C(=O)NCCCC[C@@H]1NC(=O)[C@@H](Cc2ccc(O)cc2)NC(=O)[C@H](CC(=O)O)NC(=O)CNC(=O)[C@H](CCCNC(=N)N)NC1=O)C(C)C)C(N)=O [^64Cu-NOTA-RGD-BBN, metal not drawn]
- cell uptake value (PC-3 tumor cells; 120 min): 2.94 % added dose
- T47D cell uptake value (T47D tumor cells): 5.30±0.53 % AD
- tissue uptake at 0.5 h ([1]; male, athymic nude, 5.5 MBq, Blood uptake): < 1 %ID/g
- tissue uptake at 1 h ([1]; male, athymic nude, 5.5 MBq, PC-3 tumor uptake with BBN blocking): 0.76 ± 0.36 %ID/g
- tissue uptake at 1 h ([1]; male, athymic nude, 5.5 MBq, PC-3 tumor uptake with RGD and BBN blocking): 0.54 ± 0.41 %ID/g
- tissue uptake at 1 h ([1]; male, athymic nude, 5.5 MBq, PC-3 tumor uptake with RGD blocking): 1.64 ± 0.77 %ID/g
- tissue uptake at 0.5 h [1, 7]: 3.06 ± 0.11 %ID/g
- tissue uptake at 1 h [1, 7]: 2.78 ± 0.56 %ID/g
- tissue uptake at 4 h [1, 7]: 2.21 ± 0.49 %ID/g
- tissue uptake at 20 h [1, 7]: 2.04 ± 0.35 %ID/g
- tissue uptake at 24 h [1, 7]: 2.04 ± 0.35 %ID/g
- tissue uptake ([1]; male, athymic nude, 5.5 MBq, liver uptake): 3.5 %ID/g
- tissue uptake at 1 h ([1]; 5.5 MBq, Blood uptake): 0.66 ± 0.15 %ID/g
- tissue uptake at 4 h ([1]; 5.5 MBq, Blood uptake): 0.49 ± 0.07 %ID/g
- tissue uptake at 20 h ([1]; 5.5 MBq, Blood uptake): 0.5 ± 0.15 %ID/g
- tissue uptake at 0.5 h ([1]; 5.5 MBq, Kidney uptake): 4.09 ± 0.81 %ID/g
- tissue uptake at 1 h ([1]; 5.5 MBq, Kidney uptake): 3.06 ± 0.25 %ID/g
- tissue uptake at 4 h ([1]; 5.5 MBq, Kidney uptake): 2.3 ± 0.41 %ID/g
- tissue uptake at 20 h ([1]; 5.5 MBq, Kidney uptake): 1.87 ± 0.41 %ID/g
- tissue uptake at 0.5 h ([1]; 5.5 MBq, Liver uptake): 3.46 ± 0.26 %ID/g
- tissue uptake at 1 h ([1]; 5.5 MBq, Liver uptake): 2.8 ± 1.15 %ID/g
- tissue uptake at 4 h ([1]; 5.5 MBq, Liver uptake): 1.83 ± 0.68 %ID/g
- tissue uptake at 20 h ([1]; 5.5 MBq, Liver uptake): 0.98 ± 0.4 %ID/g
- tissue uptake at 4 h [2]: 1.79 ± 0.2 %ID/g
- tissue uptake at 24 h [2]: 1.29 ± 0.09 %ID/g
- tissue uptake at 4 h ([3]; 4 h): 1.94 ± 0.22 %ID/g
- tissue uptake at 24 h ([3]; 24 h): 1.38 ± 0.16 %ID/g
